Source: patent US20220409620A1, “REDUCING IMMUNOGENICITY TO PEGLOTICASE” (Horizon Pharma Rheumatology LLC, priority 2016, published 2022)
Read-outs that look alike come from different tables or passages of the source.

Experiments:
[1] = Stability of pegloticase diluted in infusion bags; format: physicochemical; conditions: at 2° C. to 8° C. and at room temperature (20° C. to 25° C.)
Experimental: Pegloticase diluted in infusion bags was stable for 4 hours at 2° C. to 8° C. (36° F. to 46° F.) and at room temperature (20° C. to 25° C., 68° F. to 77° F.); however, the diluted solution was stored under refrigeration, not frozen, protected from light, and used within 4 hours of dilution. Before administration, the diluted solution of pegloticase was allowed to reach room temperature. Pegloticase in a vial or IV infusion fluid was never subjected to artificial heating.

[2] = tested on: adult patients with uncontrolled gout
From the text: As used herein, an “adverse event” or “AE” refers to any untoward medical occurrence associated with the use of a drug in humans, whether it is considered drug-related or not. An AE or suspected adverse reaction is considered a “serious adverse event” or “SAE” if, in the view of either the Investigator or Sponsor, it results in any of the following outcomes: (1) Death, (2) Life-threatening: an AE is considered “life-threatening” if, in the view of either the Investigator or Sponsor, its occurrence places the subject or subject at immediate risk of death. […] (5) A congenital anomaly/birth defect; (6) Important medical events that may not result in death, be life-threatening, or require hospitalization may be considered serious when, based upon appropriate medical judgment, they may jeopardize the patient or subject and may require medical or surgical intervention to prevent one of the outcomes listed in this definition.
Safety Variables: Safety was assessed via AE and concomitant medication use monitoring, physical examinations, vital signs, clinical safety laboratory evaluations (hematology, chemistry, urine uric acid:creatinine ratio), pregnancy testing (if applicable), electrocardiograms (ECGs), and AEs of special interest (i.e., IRs, anaphylaxis, gout flares, and cardiovascular events).
AEs of special interest may include IRs, anaphylaxis, gout flares, and cardiovascular events.
Severity in accordance with the disclosure is reported according to the following: Grade 1 (Mild)—No interference with daily activity. Grade 2 (Moderate)—Some interference with daily activity but medical intervention not required (e.g., doctor visit and/or medication); over the counter medicine permitted. Grade 3 (Severe)—Prevents daily activity and requires medical intervention (e.g., doctor visit and/or medication). Grade 4 (Potentially Life-threatening)—Emergency room visit or hospitalization.
An AE was defined as any untoward event, whether or not it was considered related to the use of pegloticase or MTX. Any worsening (i.e., any clinically significant adverse change in frequency or intensity) of a preexisting condition which was temporally associated with the use of pegloticase or MTX was also considered an AE. Abnormal laboratory values or test results constitute AEs only if they induce clinical signs or symptoms or require therapy, and were recorded on the AE CRF under the signs, symptoms or were associated with diagnoses associated with them. Screening conditions were not considered AE; however, worsening of a preexisting condition may be considered an AE. AEs were collected starting at the baseline, Visit 1.
TEAEs during the Pegloticase+IMM Period were defined as events that occur after the start of the first pegloticase infusion through 30 days after the last dose of pegloticase and/or MTX or placebo for MTX (whichever was later). TEAEs that occur during the MTX Tolerability Assessment Period prior to randomization (Weeks −6 to −4) was summarized separately for the MTX population. […] AEs that occur more than 30 days after the last dose of pegloticase and/or MTX or placebo for MTX through the 6-month follow-up visit was also summarized.
The number and percentage of subjects experiencing AEs were summarized by system organ class and preferred term. Summaries by maximum severity and relationship to MTX and/or pegloticase was also provided. SAEs and AEs leading to discontinuation of MTX and/or pegloticase were presented by system organ class and preferred term.

[3] = Methotrexate Run-in Period, ITT (N = 15)
[4] = Methotrexate Run-in Period, mITT (N = 14)

Compound: pegloticase
- stability of pegloticase diluted in infusion bags [1]: 4 h

Compound: CN(Cc1cnc2nc(N)nc(N)c2n1)c1ccc(C(=O)N[C@@H](CCC(=O)O)C(=O)O)cc1 [MTX, methotrexate]
- Infections And Infestations, % [2]: (13.3) %
- Abdominal Discomfort, % [2, 3]: (13.3) %
- Abdominal Discomfort, Incidence Rate [2, 3]: 1.8 Events/PY of MTX
- Any TEAEs, % [2, 3]: (66.7) %
- Any TEAEs, Incidence Rate [2, 3]: 18.2 Events/PY of MTX
- Blood And Lymphatic System Disorders, % [2, 3]: (6.7) %
- Blood And Lymphatic System Disorders, Incidence Rate [2, 3]: 1.8 Events/PY of MTX
- Chronic Sinusitis, % [2, 3]: (6.7) %
- Chronic Sinusitis, Incidence Rate [2, 3]: 0.9 Events/PY of MTX
- Cough, % [2, 3]: (6.7) %
- Cough, Incidence Rate [2, 3]: 0.9 Events/PY of MTX
- Dental Caries, % [2, 3]: (6.7) %
- Dental Caries, Incidence Rate [2, 3]: 0.9 Events/PY of MTX
- Diarrhoea, % [2, 3]: (6.7) %
- Diarrhoea, Incidence Rate [2, 3]: 0.9 Events/PY of MTX
- Dry Eye, % [2, 3]: (6.7) %
- Dry Eye, Incidence Rate [2, 3]: 0.9 Events/PY of MTX
- Eye Disorders, % [2, 3]: (6.7) %
- Eye Disorders, Incidence Rate [2, 3]: 0.9 Events/PY of MTX
- Gastrointestinal Disorders, % [2, 3]: (33.3) %
- Gastrointestinal Disorders, Incidence Rate [2, 3]: 5.5 Events/PY of MTX
- Gout, % [2, 3]: (33.3) %
- Gout, Incidence Rate [2, 3]: 5.5 Events/PY of MTX
- Headache, % [2, 3]: (6.7) %
- Headache, Incidence Rate [2, 3]: 0.9 Events/PY of MTX
- Leukopenia, % [2, 3]: (6.7) %
- Leukopenia, Incidence Rate [2, 3]: 0.9 Events/PY of MTX
- Metabolism And Nutrition Disorders, % [2, 3]: (33.3) %
- Metabolism And Nutrition Disorders, Incidence Rate [2, 3]: 5.5 Events/PY of MTX
- Nasopharyngitis, % [2, 3]: (6.7) %
- Nasopharyngitis, Incidence Rate [2, 3]: 0.9 Events/PY of MTX
- Nausea, % [2, 3]: (13.3) %
- Nausea, Incidence Rate [2, 3]: 1.8 Events/PY of MTX
- Nervous System Disorders, % [2, 3]: (6.7) %
- Nervous System Disorders, Incidence Rate [2, 3]: 0.9 Events/PY of MTX
- Neutropenia, % [2, 3]: (6.7) %
- Neutropenia, Incidence Rate [2, 3]: 0.9 Events/PY of MTX
- Pruritus, % [2, 3]: (6.7) %
- Pruritus, Incidence Rate [2, 3]: 0.9 Events/PY of MTX
- Respiratory, Thoracic And Mediastinal Disorders, % [2, 3]: (6.7) %
- Respiratory, Thoracic And Mediastinal Disorders, Incidence Rate [2, 3]: 0.9 Events/PY of MTX
- Skin And Subcutaneous Tissue Disorders, % [2, 3]: (6.7) %
- Skin And Subcutaneous Tissue Disorders, Incidence Rate [2, 3]: 0.9 Events/PY of MTX
- Abdominal Discomfort, % [2, 4]: (14.3) %
- Abdominal Discomfort, Incidence Rate [2, 4]: 2.0 Events/PY of MTX
- Any TEAEs, % [2, 4]: (71.4) %
- Any TEAEs, Incidence Rate [2, 4]: 20.0 Events/PY of MTX
- Blood And Lymphatic System Disorders, % [2, 4]: (7.1) %
- Blood And Lymphatic System Disorders, Incidence Rate [2, 4]: 2.0 Events/PY of MTX
- Chronic Sinusitis, % [2, 4]: (7.1) %
- Chronic Sinusitis, Incidence Rate [2, 4]: 1.0 Events/PY of MTX
- Cough, % [2, 4]: (7.1) %
- Cough, Incidence Rate [2, 4]: 1.0 Events/PY of MTX
- Dental Caries, % [2, 4]: (7.1) %
- Dental Caries, Incidence Rate [2, 4]: 1.0 Events/PY of MTX
- Diarrhoea, % [2, 4]: (7.1) %
- Diarrhoea, Incidence Rate [2, 4]: 1.0 Events/PY of MTX
- Dry Eye, % [2, 4]: (7.1) %
- Dry Eye, Incidence Rate [2, 4]: 1.0 Events/PY of MTX
- Eye Disorders, % [2, 4]: (7.1) %
- Eye Disorders, Incidence Rate [2, 4]: 1.0 Events/PY of MTX
- Gastrointestinal Disorders, % [2, 4]: (35.7) %
- Gastrointestinal Disorders, Incidence Rate [2, 4]: 6.0 Events/PY of MTX
- Gout, % [2, 4]: (35.7) %
- Gout, Incidence Rate [2, 4]: 6.0 Events/PY of MTX
- Headache, % [2, 4]: (7.1) %
- Headache, Incidence Rate [2, 4]: 1.0 Events/PY of MTX
- Infections And Infestations, % [2, 4]: (14.3) %
- Infections And Infestations, Incidence Rate [2, 4]: 2.0 Events/PY of MTX
- Infections And Infestations, Total Events [2, 4]: 2
- Leukopenia, % [2, 4]: (7.1) %
- Leukopenia, Incidence Rate [2, 4]: 1.0 Events/PY of MTX
- Metabolism And Nutrition Disorders, % [2, 4]: (35.7) %
- Metabolism And Nutrition Disorders, Incidence Rate [2, 4]: 6.0 Events/PY of MTX
- Nasopharyngitis, % [2, 4]: (7.1) %
- Nasopharyngitis, Incidence Rate [2, 4]: 1.0 Events/PY of MTX
- Nausea, % [2, 4]: (14.3) %
- Nausea, Incidence Rate [2, 4]: 2.0 Events/PY of MTX
- Nervous System Disorders, % [2, 4]: (7.1) %
- Nervous System Disorders, Incidence Rate [2, 4]: 1.0 Events/PY of MTX
- Neutropenia, % [2, 4]: (7.1) %
- Neutropenia, Incidence Rate [2, 4]: 1.0 Events/PY of MTX
- Pruritus, % [2, 4]: (7.1) %
- Pruritus, Incidence Rate [2, 4]: 1.0 Events/PY of MTX
- Respiratory, Thoracic And Mediastinal Disorders, % [2, 4]: (7.1) %
- Respiratory, Thoracic And Mediastinal Disorders, Incidence Rate [2, 4]: 1.0 Events/PY of MTX
- Skin And Subcutaneous Tissue Disorders, % [2, 4]: (7.1) %
- Skin And Subcutaneous Tissue Disorders, Incidence Rate [2, 4]: 1.0 Events/PY of MTX
- Infections And Infestations, Incidence Rate ([2]; human, in vivo, 4 weeks): 1.8 Events/PY of MTX
- Infections And Infestations, Total Events ([2]; human, in vivo, 4 weeks): 2
- tolerability of MTX ([2]; oral 15 mg/week, all patients): tolerated
